In the supplement of paper PMC10307832:

How the values were obtained:
Test in all cases: relative viability (nuclei count vs DMSO), 5 days (fraction); higher = more cells survive
EMC-BAC-2 = tested on: EMC-BAC-2
Method in brief: (§1)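 Each reported value is a median over duplicate plates. It expresses relative viability: treated-well nuclei count divided by vehicle-well nuclei count. Lung cancer cell lines in 1536-well plates were dosed by pin tool a day after seeding, alone with one drug or with a fixed anchor-drug dose plus five library-drug doses (not always all listed) in √10 steps, and nuclei were counted after 5 days.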

NCI-H1993 = tested on: NCI-H1993
Method in brief: as §1

ABC-1 = tested on: ABC-1
Method in brief: as §1

NCI-H1395 = tested on: NCI-H1395
Method in brief: as §1

NCI-H358 = tested on: NCI-H358
Method in brief: as §1

HARA = tested on: HARA
Method in brief: as §1

LC-2-ad = tested on: LC-2-ad
Method in brief: as §1

ChaGo-K-1 = tested on: ChaGo-K-1
Method in brief: as §1

NCI-H1944 = tested on: NCI-H1944
Method in brief: as §1

NCI-H838 = tested on: NCI-H838
Method in brief: as §1

NCI-H1793 = tested on: NCI-H1793
Method in brief: as §1

NCI-H2126 = tested on: NCI-H2126
Method in brief: as §1

HCC-15 = tested on: HCC-15
Method in brief: as §1

NCI-H23 = tested on: NCI-H23
Method in brief: as §1

NCI-H2405 = tested on: NCI-H2405
Method in brief: as §1

HCC-78 = tested on: HCC-78
Method in brief: as §1

HOP-62 = tested on: HOP-62
Method in brief: as §1

HCC-366 = tested on: HCC-366
Method in brief: as §1

Which results are given for `COc1nc(C)cnc1NS(=O)(=O)c1cccnc1-c1ccc(-c2nnco2)cc1` [Zibotentan] + NC(=O)Nc1cc(-c2cccc(F)c2)sc1C(=O)N[C@H]1CCCNC1 [AZD7762] (partner 0.2 µM)?
relative viability (EMC-BAC-2; first compound 0.08 µM): 1.08; relative viability (EMC-BAC-2; first compound 0.8 µM): 1.08; relative viability (EMC-BAC-2; first compound 2.53 µM): 1.16; relative viability (NCI-H1993; first compound 0.08 µM): 0.667; relative viability (NCI-H1993; first compound 0.253 µM): 0.778; relative viability (NCI-H1993; first compound 0.8 µM): 0.728; relative viability (NCI-H1993; first compound 2.53 µM): 0.881; relative viability (ABC-1; first compound 0.08 µM): 0.711; relative viability (ABC-1; first compound 0.253 µM): 0.86; relative viability (ABC-1; first compound 0.8 µM): 0.765; relative viability (ABC-1; first compound 2.53 µM): 0.843; relative viability (NCI-H1395; first compound 0.08 µM): 0.417; relative viability (NCI-H1395; first compound 0.253 µM): 0.349; relative viability (NCI-H1395; first compound 0.8 µM): 0.401; relative viability (NCI-H1395; first compound 2.53 µM): 0.441; relative viability (NCI-H358; first compound 0.08 µM): 0.48; relative viability (NCI-H358; first compound 0.253 µM): 0.405; relative viability (NCI-H358; first compound 0.8 µM): 0.383; relative viability (NCI-H358; first compound 2.53 µM): 0.667; relative viability (HARA; first compound 0.08 µM): 0.254; relative viability (HARA; first compound 0.8 µM): 0.302; relative viability (HARA; first compound 2.53 µM): 0.416; relative viability (LC-2-ad; first compound 0.08 µM): 0.785; relative viability (LC-2-ad; first compound 0.253 µM): 0.781; relative viability (LC-2-ad; first compound 0.8 µM): 0.791; relative viability (LC-2-ad; first compound 2.53 µM): 0.905; relative viability (ChaGo-K-1; first compound 0.08 µM): 0.912; relative viability (ChaGo-K-1; first compound 0.253 µM): 0.842; relative viability (ChaGo-K-1; first compound 0.8 µM): 0.756; relative viability (ChaGo-K-1; first compound 2.53 µM): 0.927; relative viability (NCI-H1944; first compound 0.08 µM): 0.561; relative viability (NCI-H1944; first compound 0.253 µM): 0.487; relative viability (NCI-H1944; first compound 0.8 µM): 0.249; relative viability (NCI-H1944; first compound 2.53 µM): 0.548; relative viability (NCI-H838; first compound 0.08 µM): 0.91; relative viability (NCI-H838; first compound 0.253 µM): 0.909; relative viability (NCI-H838; first compound 0.8 µM): 0.912; relative viability (NCI-H838; first compound 2.53 µM): 0.956; relative viability (NCI-H1793; first compound 0.08 µM): 0.658; relative viability (NCI-H1793; first compound 0.253 µM): 0.341; relative viability (NCI-H1793; first compound 0.8 µM): 0.37; relative viability (NCI-H1793; first compound 2.53 µM): 0.495; relative viability (NCI-H2126; first compound 0.08 µM): 0.986; relative viability (NCI-H2126; first compound 0.253 µM): 0.987; relative viability (NCI-H2126; first compound 0.8 µM): 0.915; relative viability (NCI-H2126; first compound 2.53 µM): 1.04; relative viability (HCC-15; first compound 0.08 µM): 1.3; relative viability (HCC-15; first compound 0.253 µM): 1.28; relative viability (HCC-15; first compound 0.8 µM): 1.18; relative viability (HCC-15; first compound 2.53 µM): 1.26; relative viability (NCI-H23; first compound 0.08 µM): 0.224; relative viability (NCI-H23; first compound 0.253 µM): 0.238; relative viability (NCI-H23; first compound 0.8 µM): 0.196; relative viability (NCI-H23; first compound 2.53 µM): 0.26; relative viability (NCI-H2405; first compound 0.08 µM): 0.766; relative viability (NCI-H2405; first compound 0.253 µM): 0.701; relative viability (NCI-H2405; first compound 0.8 µM): 0.654; relative viability (NCI-H2405; first compound 2.53 µM): 0.846; relative viability (HCC-78; first compound 0.08 µM): 0.712; relative viability (HCC-78; first compound 0.253 µM): 0.475; relative viability (HCC-78; first compound 0.8 µM): 0.664; relative viability (HCC-78; first compound 2.53 µM): 0.474; relative viability (HOP-62; first compound 0.08 µM): 0.593; relative viability (HOP-62; first compound 0.253 µM): 0.63; relative viability (HOP-62; first compound 0.8 µM): 0.479; relative viability (HOP-62; first compound 2.53 µM): 0.615; relative viability (HCC-366; first compound 0.08 µM): 0.28; relative viability (HCC-366; first compound 0.253 µM): 0.208; relative viability (HCC-366; first compound 0.8 µM): 0.103; relative viability (HCC-366; first compound 2.53 µM): 0.343
